The values below come from patent US5817816A (Meiji Seika Kaisha, Ltd., priority 1997, dated 1998).

SMILES strings stand for the structures. Some results are limits rather than exact numbers.

The assay concerns the target T1, progesterone receptor (Sus scrofa, UniProt D0EWS6).
T1 construct: from tissue; host or cells: hog uterus, 100,000×g supernatant (cytosol)
T1 sequence (D0EWS6 1-934): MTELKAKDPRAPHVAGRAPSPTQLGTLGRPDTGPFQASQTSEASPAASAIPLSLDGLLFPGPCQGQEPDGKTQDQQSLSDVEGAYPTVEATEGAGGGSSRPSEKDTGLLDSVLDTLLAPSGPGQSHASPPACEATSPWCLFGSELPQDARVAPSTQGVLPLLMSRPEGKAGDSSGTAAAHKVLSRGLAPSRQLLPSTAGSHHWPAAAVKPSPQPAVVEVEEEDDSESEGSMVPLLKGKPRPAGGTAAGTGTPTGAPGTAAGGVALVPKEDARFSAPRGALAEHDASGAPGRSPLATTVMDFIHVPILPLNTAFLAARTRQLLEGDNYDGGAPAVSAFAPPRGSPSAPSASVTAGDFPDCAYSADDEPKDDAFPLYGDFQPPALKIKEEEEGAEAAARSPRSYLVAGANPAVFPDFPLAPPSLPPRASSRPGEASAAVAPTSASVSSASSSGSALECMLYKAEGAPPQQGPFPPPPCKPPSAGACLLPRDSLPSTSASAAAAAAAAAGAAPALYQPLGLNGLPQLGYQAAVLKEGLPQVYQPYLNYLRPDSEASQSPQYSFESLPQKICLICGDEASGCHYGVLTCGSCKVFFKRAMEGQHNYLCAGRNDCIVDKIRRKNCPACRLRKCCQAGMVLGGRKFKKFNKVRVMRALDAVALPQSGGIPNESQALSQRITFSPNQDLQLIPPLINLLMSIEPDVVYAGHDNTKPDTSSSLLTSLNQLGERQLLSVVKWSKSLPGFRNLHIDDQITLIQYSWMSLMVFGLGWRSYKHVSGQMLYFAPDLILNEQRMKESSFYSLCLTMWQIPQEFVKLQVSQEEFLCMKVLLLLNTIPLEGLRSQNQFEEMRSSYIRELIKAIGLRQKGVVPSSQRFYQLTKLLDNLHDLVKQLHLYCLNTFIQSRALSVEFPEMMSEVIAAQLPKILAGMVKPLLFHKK
Kind of assay: Progesterone receptor binding inhibition ([3H]-progesterone, hog uterus cytosol). On the set-up: species or system hogs. Particulars: [3H]-progesterone ligand, 60 min at 4° C. The procedure: That is, uteri taken from hogs were disrupted in 5 mM phosphate buffer by means of Polytron homogenizer, and this solution was centrifuged (100,000×g, 30 min) to separate the supernatant, thereby preparing a cytosol containing progesterone receptor. A given concentration of a test drug solution (10 μl) was added to a solution composed of 50 μl of the cytosol obtained Just above (2-3 mg protein/ml) and 40 μl of a solution of [^3 H]-progesterone as a ligand (3.84 TBq/mM, 18.5 kBq/ml), and they were incubated in a test tube for 60 min at 4° C. to effect a reaction. Then, 100 μl of a 0.5% activated carbon solution was added to the reaction solution, and the mixture was allowed to stand for 10 min and then centrifuged (2,000×g, 10 min). The radioactivity of the supernatant was measured with a liquid scintillation counter.
Separately, the radioactivity was measured in the same manner as described above, except that no test drug was added. Further, the radioactivity was measured in the same manner as described above, except that 10 μl of Medroxyprogesterone Acetate (MPA) (10 μg/ml) was added instead of the test drug. The radioactivity with no test drug added was defined as the amount of total binding of [^3 H]-progesterone to the cytosol, and the radioactivity with MPA added was defined as the amount of non-specific binding. […] [formula]

Turning to `CC1=C2C[C@@]3(C)C(=CC=C[C@@H]3C)C=C2OC1=O` [Example 16, Eremophila-1(10),2(3),7(11),8(9)-tetraen-12,8-olide], the half-maximal inhibitory concentration (IC50) (in general, the concentration that gives 50% inhibition) is 400 nM. `COC(=O)C(C)=C1C[C@@]2(C)C(=CC1=O)C=C[C@H](OC(C)=O)[C@@H]2C` [Example 14a, 3β-Acetoxy-8-oxoeremophila-1(2),7(11),9(10)-trien-12-oic acid methyl ester]: the half-inhibitory concentration (IC50) came to 600 nM. The value for `CC(=O)O[C@H]1CC=C2C=C3OC(=O)C(C)=C3C[C@]2(C)[C@H]1C` [Example 7b, 3β-Acetoxyeremophila-1(10),7(11),8(9)-trien-12,8-olide] was under 100 nM; that for `CC(=O)O[C@H]1CC(Cl)=C2C=C3OC(=O)C(C)=C3C[C@]2(C)[C@H]1C` [Example 7a, 3β-Acetoxy-1-chloroeremophila-1(10),7(11),8(9)-trien-12,8-olide] was under 100 nM; that for `CCOC1=C2C=C3OC(=O)C(C)=C3C[C@]2(C)[C@@H](C)[C@@H](OC(C)=O)C1` [Example 21b, 3β-Acetoxy-1-ethoxyeremophila-1(10),7(11),8(9)-trien-12,8-olide] was 279 nM. The value for `CC(=O)O[C@H]1CC(Sc2ccccc2)=C2C=C3OC(=O)C(C)=C3C[C@]2(C)[C@H]1C` [Example 21a, 3β-Acetoxy-1-phenylthioeremophila-1(10),7(11),8(9)-trien-12,8-olide] was 700 nM.

For the molecule `CC(=O)O[C@H]1C=CC2=C[C@H]3OC(=O)C(C)=C3C[C@]2(C)[C@H]1C` [Example 15, 3β-Acetoxyeremophila-1(2),7(11),9(10)-trien-12,8β-olide], the IC50 is under 100 nM.
